Values of other authors in patent publication US20230112273A1, “Process for Producing an Aroma-Laden Gas, Aroma-Laden Gas, and Use of the Aroma-Laden Gas” (Döhler GmbH, priority 2020, published 2023).

Settings: listed beside the composition of the aromatic substances in the laden solid phase (beer, Exemplary Embodiment 1)

CC(C)CO [isobutanol]
Log P: 0.69

CCC(C)CO (stereo not shown) [2-methyl-1-butanol]
Log P: 1.22

CCCCCC(=O)O [hexanoic acid]
Log P: 1.84

CC(=O)OCCC(C)C [3-methylbutyl acetate]
Log P: 2.12

CCCCCCCCCC(=O)O [decanoic acid]
Log P: 3.96

CCCCCCCC(=O)OCC [octanoic acid ethyl ester]
Log P: 3.9

CC(C)CCO [3-methyl-1-butanol]
Log P: 1.22
